Patent EP2871962B1, “WOOD PROTECTION AGAINST MICROORGANISMS BY LACCASE-CATALYSED IODINATION” (EMPA Eidgenössische Materialprüfungs- und Forschungsanstalt, priority 2012, dated 2013)
Values joined by “and” are separate entries in the source; they are usually repeats but may differ in a detail not shown here. Equal entries are not always repeated.

Experiments:
[1] = system: A. pullulans, C. picea, C. herbarum and D. pinicola; assay: Biotests 2: blue stain test of treated wood (EN 152-2, modified); format: cell-based; details: 6 weeks of incubation, mean of stain categories 0-5 ±SE, n = 6, Mediator = ACS (50 µM); for Blue stain discoloration, Leached: wood batch 2, leached (EN 84); for Blue stain discoloration, Non-leached: wood batch 2, non-leached
Experimental: (§1) Wood specimens (batch 1: 10 x 10 x 5 mm, length x width x height used in the biotests 1 and batch 2: 20 x 15 x 10 mm used in the biotests 2), free of defects, were extracted longitudinally from boards of Norway spruce trees grown in Switzerland, in order to minimize the influence of natural variability. All specimens were conditioned at 23C°(±1°C) and 50% (±5%) relative humidity (RH) until they reached an equilibrium moisture content of approximately 8-10%. Prior to the wood treatment the specimens were sterilized by autoclaving for 20min at 121°C(±1°C).
The enzymatic wood iodination and polymerisation were carried out by dipping three wood specimens of batch 1 in 30ml or 12 wood specimens of batch 2 in 200ml reaction solution (pH 4-6) containing one of the phenolic compounds (4mM), or potassium iodide (1 or 50mM) in the presence of laccase ([…]) for 18h at room temperature. Furthermore, to test the suitability of HBA (5mM) as mediator some additional experiments were performed. The chemical preservative VP 7/ 260a containing IPBC and propiconazole as active agents was used as a benchmark with a final concentration of 5% (v/v). The wood specimens were treated and used in the biological tests, with the following modifications: • Control = Wood treated with buffer • L = Wood treated with laccase alone • L-M = Wood treated with laccase and mediator • Iso = Wood treated with isoeugenol • Iso-L = Wood treated with isoeugenol and laccase • Iso-L-M = Wood treated with isoeugenol, laccase and mediator • Thy = Wood treated with thymol • Thy-L = Wood treated with thymol and laccase • Thy-L-M = Wood treated with thymol and laccase and mediator • Ix = Wood treated with 1 or 50mM iodide (x = concentration of iodide) • Ix-L = Wood treated with 1 or 50mM iodide and laccase • Ix-L-M = Wood treated with 1 or 50mM iodide, laccase and mediator • VP7 = Wood treated with VP 7/ 260a (IPBC and propiconazole)
After the reaction all wood specimens of batch 1 had undergone a leaching procedure comprising five cycles of incubation in ddH2O (liquid volume min. 10 times the specimen volume, 100rpm, room temperature, 24h) and water exchange. Half of the wood specimens of batch 2 were exposed to leaching for two weeks including nine steps of water changing according to EN 84 (29), the other half was used without leaching in biotests.
The resistance of the treated wood against blue stain and wood decay fungi was determined in biotests 2 according to the European standards EN 152-2 (30) and EN 113 (31) with slight modifications. The EN 152 is a classical test for blue staining, originally intended to determine the effectiveness of a preservative treatment against blue stain in service. The treated wood samples were dipped into a spore suspension of A. pullulans, C. picea, C. herbarum and D. pinicola (cfu: > 10^5) and placed horizontally in a Kolle flask containing vermiculite (18g) which was inoculated additionally with 40ml of the spore suspension. The incubated specimens were stored in an incubation room at 22°C and 70% RH (6 weeks). After incubation the surface was evaluated by classifying the percentage of blue-stain discolouration from 0 to 5 according to Thwaites et al. (32) (Table 1). Table 1: Determination of the blue stain discoloration

O. placenta [2] = assay: Biotests 2: mini-wood block decay test (comparable with EN 113), mass loss; format: cell-based, Oligoporus placenta; details: wood batch 2, non-leached and leached, 12 weeks incubation; numbers only in Figure 2
Experimental: as §1
(§2) The enzymatic wood iodination and polymerisation were carried out by dipping three wood specimens of batch 1 in 30ml or 12 wood specimens of batch 2 in 200ml reaction solution (pH 4-6) containing one of the phenolic compounds (4mM), or potassium iodide (1 or 50mM) in the presence of laccase (10U ml^-1) and either 10µM ABTS for batch 1 or 100µM ACS for batch 2 under shaking (100rpm) for 18h at room temperature. […]
(§3) The treated wood was aseptically added to fully colonised Petri dishes (135mm diameter, 2% malt extract agar (MEA)) by O. placenta and T. versicolor respectively and incubated at 22C° and 70% RH. The ability of the wood-decay fungi to degrade the wood was determined gravimetrically after incubation periods of 6 and 12 weeks and expressed as mass loss (%) according to EN 113 (31): Mass loss(%) = (m0 −m1)/(m0)⋅100 [formula] […]

T. versicolor [3] = assay: as above; format: cell-based, Trametes versicolor; details: wood batch 2, non-leached and leached, 12 weeks incubation; numbers only in Figure 2
Experimental: as §1, §2, §3

A. alternata = assay: Growth inhibition on supplemented malt extract agar plates (Example 1); format: cell-based; details: 2% MEA; phenolic derivatives 4mM, VP 7/ 260a 5% (v/v); without wood; ±SE, n = 3
D. pinicola = assay: as above; format: cell-based, Discula pinicola; details: 2% MEA; phenolic derivatives 4mM, VP 7/ 260a 5% (v/v); without wood; ±SE, n = 3
Experimental: (§4) In addition to the mentioned biotests 2 the antimicrobial activity of the reaction derivatives without wood was evaluated on agar plates (5), excluding the laccase-catalysed iodine solution. It was assumed that the iodine molecules would react with starch from malt to form polyiodide chains, which would prevent the antimicrobial effect (33). The laccase catalysis of the phenols was performed under shaking for 18h at room temperature as described above and the phenolic derivatives were added to 2% MEA after autoclaving to a final concentration of 4mM. The fungicide VP 7/ 260a were added to a concentration of 5% (v/v). The supplemented Petri dishes were inoculated in the centre with a mycelium agar disc (5mm diameter) taken from the sub-margin of 14 day old cultures of the ascomycetes A. pullulans and D. pinicola and the basidiomycetes O. placenta and T. versicolor. The fungal growth was estimated by measuring the colony diameter and the growth inhibition was expressed as % of reference grown on non-supplemented malt agar.

O. placenta [4] = assay: as above; format: cell-based, Oligoporus placenta; details: 2% MEA; phenolic derivatives 4mM, VP 7/ 260a 5% (v/v); without wood; ±SE, n = 3
Experimental: as §4

T. versicolor [5] = assay: as above; format: cell-based, Trametes versicolor; details: 2% MEA; phenolic derivatives 4mM, VP 7/ 260a 5% (v/v); without wood; ±SE, n = 3
Experimental: as §4

[6] = system: Trametes versicolor laccase; assay: Laccase-catalysed oxidation of iodide to tri-iodide with redox mediators (absorbance at 353 nm); format: biochemical
Experimental: The enzyme used in the study was a commercial laccase from Trametes versicolor (Sigma-Aldrich). […] Reactions were performed in transparent polymethyl methacrylate (PMMA) cuvettes or polystyrene micro titer plates. Change in absorbance (ΔA) at 420nm was recorded in intervals of 10sec for 3min. Samples with very high activities were diluted 10-fold with ddH2O before using them in the assay. Volumetric activities were calculated using an extinction coefficient (ε) of 0.036µmol^-1 1 cm^-1 (36000mol^-1 1 cm^-1) (22), according to the following equation (Δt in min, V in µl):
The laccase-catalysed oxidation of iodide (I^-) to iodine (I2) was monitored by the formation of triiodide (I3^-) at 353nm (laccase activity 0.12U ml^-1, 50mM iodide, citrate buffer pH 4.5, extinction coefficient of I3^- ε = 28000 mol^-1 1 cm^-1) (24, 17). […] Well-known synthetic (ABTS) and natural (acetosyringone [ACS], 4-hydroxybenzoic acid [HBA]) laccase mediators were tested (25, 26). […] The pH optima for mediator-enhanced oxidation of iodide were determined using the McIlvain citrate-phoshate buffer series.

Aureobasidium pullulans = assay: Growth inhibition by iodinated and non-iodinated phenols on agar plates (Example 2); format: cell-based; details: ± standard deviation, n = 6; for inhibition at 1000 µM: 1mM in 2% malt extract agar; for inhibition at 2000 µM: 2mM in 2% malt extract agar; for inhibition at 4000 µM: 4mM in 2% malt extract agar
Experimental: (§5) Vanillin and ethyl-vanillin (4 mM) were incubated in the presence of commercial T. versicolor laccase (250 mg per L), 0.1 mM mediator ABTS and 50 mM potassium iodide in citrate-phosphate buffer (pH 5.0) for 20 h at room temperature. The reaction vessels with a liquid volume of 1 L were aerated with pressurized air through a frit. Reaction products were extracted by addition of 250 mL ethyl-acetate, thorough mixing and subsequent separation of the organic phase. The solvent was removed in a rotary evaporator at 50°C under vacuum until solid products were obtained. Reaction products were re-dissolved in ethyl-acetate and analysed by HPLC-MS.
(§6) For biotests, iodo-vanillin and iodo-ethyl-vanillin were dissolved to a concentration of 0.4 M in DMSO (stock solution). The non-iodinated reference compounds (educts) vanillin and ethyl-vanillin were dissolved to a concentration of 0.1 M in ethanol. All compounds were evaluated on agar plates (Ø 90mm). The compounds were added to 2% malt extract agar after autoclaving to final concentrations of 1, 2 and 4 mM, respectively. Control plates contained similar amounts of DMSO or ethanol as added with stock solutions. Supplemented agar plates were inoculated in the centre with a mycelium agar disc (9-mm diameter) taken from the submargins of 14-day old cultures of the basidiomycetes Oligoporus placenta, Gloephyllum trabeum, Coniophora puteana, Trametes versicolor and the ascomycete Aureobasidium pullulans. Plates were incubated at 22 °C and 70% RH. The radial fungal growth was estimated by measuring the colony diameter, and the growth inhibition was expressed as percentage reduction of this value after similar incubation times. Growth inhibition data of 6 replicate plates per compound/control were arcsine transformed prior to statistical analysis (ANOVA) and back transformed to numerical values for visualization. Means were separated using Tukey's HSD (honestly significant difference) test at significance levels with P values of <0.05 and <0.001. The statistical package used for all analyses was SPSS (version 17.0; SPSS Inc., Chicago, IL).

Coniophora puteana = assay: as above; format: cell-based; details: ± standard deviation, n = 6, read-out: Growth inhibition, C. puteana; for inhibition at 1000 µM: 1mM in 2% malt extract agar; for inhibition at 2000 µM: 2mM in 2% malt extract agar; for inhibition at 4000 µM: 4mM in 2% malt extract agar
Experimental: as §5, §6

Gloephyllum trabeum = assay: as above; format: cell-based; details: Gloeophyllum trabeum, ± standard deviation, n = 6, read-out: Growth inhibition, G. trabeum; for inhibition at 1000 µM: 1mM in 2% malt extract agar; for inhibition at 2000 µM: 2mM in 2% malt extract agar; for inhibition at 4000 µM: 4mM in 2% malt extract agar
Experimental: as §5, §6

Oligoporus placenta = assay: as above; format: cell-based; details: Rhodonia placenta, ± standard deviation, n = 6, read-out: Growth inhibition, O. placenta; for inhibition at 1000 µM: 1mM in 2% malt extract agar; for inhibition at 2000 µM: 2mM in 2% malt extract agar; for inhibition at 4000 µM: 4mM in 2% malt extract agar
Experimental: as §5, §6

Trametes versicolor = assay: as above; format: cell-based; details: ± standard deviation, n = 6, read-out: Growth inhibition, T. versicolor; for inhibition at 1000 µM: 1mM in 2% malt extract agar; for inhibition at 2000 µM: 2mM in 2% malt extract agar; for inhibition at 4000 µM: 4mM in 2% malt extract agar
Experimental: as §5, §6

| SMILES | inhibition at 1000 µM (Coniophora puteana) [%] | inhibition at 2000 µM (Coniophora puteana) [%] | inhibition at 4000 µM (Coniophora puteana) [%] | inhibition at 1000 µM (Gloephyllum trabeum) [%] | inhibition at 2000 µM (Gloephyllum trabeum) [%] | inhibition at 1000 µM (Oligoporus placenta) [%] | inhibition at 2000 µM (Oligoporus placenta) [%] | inhibition at 4000 µM (Oligoporus placenta) [%] | inhibition at 1000 µM (Trametes versicolor) [%] | inhibition at 2000 µM (Trametes versicolor) [%] | inhibition at 4000 µM (Trametes versicolor) [%] | further results |
| --- | --- | --- | --- | --- | --- | --- | --- | --- | --- | --- | --- | --- |
| Cc1ccc(C(C)C)c(O)c1 [Thy, thymol] |  |  |  |  |  |  |  |  |  |  |  | Blue stain discoloration, Leached [1]: 3.5 and 3.5 ±0.3; Blue stain discoloration, Non-leached [1]: 2.5 and 2.5 ±0.6; mass loss of wood caused by O. placenta (result in words) (O. placenta [2]): minor effect; mass loss of wood caused by T. versicolor (result in words) (T. versicolor [3]): minor effect; Growth inhibition [%] on agar plate compared to control, A. alternata (A. alternata): 100 ±0.0%; Growth inhibition [%] on agar plate compared to control, D. pinicola (D. pinicola): 100 ±0.0%; Growth inhibition [%] on agar plate compared to control, O. placenta (O. placenta [4]): 100 ±0.0%; Growth inhibition [%] on agar plate compared to control, T. versicolor (T. versicolor [5]): 100 ±0.0% |
| O=C(O)c1ccc(O)cc1 [HBA, 4-hydroxybenzoic acid] |  |  |  |  |  |  |  |  |  |  |  | function as mediator ([6]; data not shown): not to have a function as mediator |
| COc1cc(C=O)ccc1O [Vanillin, 4-hydroxy-3-methoxybenzaldehyde] | 18.2 ± 31.6 | 24.2 | 61.5 | 2.19 ± 1 | 13.4 | 0 | 11.8 ± 8.5 | 55.3 | 6.59 ± 4.2 | 18.8 | 42 | inhibition at 1000 µM (Aureobasidium pullulans): 0%; inhibition at 2000 µM (Aureobasidium pullulans): 8.52 ± 14.8%; inhibition at 4000 µM (Aureobasidium pullulans): 17.9 ± 11.5%; inhibition at 4000 µM (Gloephyllum trabeum): 51.4% |
| [I-].[K+] [I1, potassium iodide] |  |  |  |  |  |  |  |  |  |  |  | Blue stain discoloration, Leached [1]: 3.7 ±0.4; Blue stain discoloration, Non-leached [1]: 2.2 ±0.4 |
| COc1cc(C=O)cc(I)c1O [5-Iodo-Vanillin (commercial), 4-hydroxy-3-iodo-5-methoxybenzaldehyde] | 66.4 | 65.1 | 56.5 | 40.9 | 37.3 | 17.7 | 22.5 | 9.06 | 78.5 | 82 | 82.9 | inhibition at 1000 µM (Aureobasidium pullulans): 1.36 ± 1.4%; inhibition at 2000 µM (Aureobasidium pullulans): 7.31%; inhibition at 4000 µM (Aureobasidium pullulans): 1.51 ± 2.4%; inhibition at 4000 µM (Gloephyllum trabeum): 38.1% |
| COc1cc(C(C)=O)cc(OC)c1O [ACS, acetosyringone] |  |  |  |  |  |  |  |  |  |  |  | laccase-catalysed tri-iodide formation ([6]; pH 5, 50µM mediator): 0.89 µM/min/mg |
| CCn1c(=NN=c2sc3cc(S(=O)(=O)O)ccc3n2CC)sc2cc(S(=O)(=O)O)ccc21 [ABTS, 2,2-azino-bis(3-ethylbenzothiazoline-6-sulfonic acid)] |  |  |  |  |  |  |  |  |  |  |  | laccase-catalysed tri-iodide formation ([6]; pH 4, 10µM mediator): 0.13 µM/min/mg |
| CCOc1cc(C=O)ccc1O [Ethylvanillin] | 0 | 21.1 ± 18.3 | 31.2 ± 21.2 | 15.8 | 23.9 | 0 | 0 | 0 | 10.2 | 29.9 | 11.4 |  |
